This is an account of results in ChEMBL document CHEMBL1201862, “PubChem BioAssay data set” (2004).

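Briefly, cells in 96-well plates were exposed to five compound concentrations for 48 h, and endpoints were estimated by linear interpolation. GI50 marks 50% less growth.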 Activity calls are given as the source filed them. No stated cut-off is given here; in the data, active = GI50 up to about 1.1 µM and inactive = higher. Bounds are passed on as bounds.

Test systems include SNB-78; DMS-273; M19-MEL; DLD-1; KM-20L2; HOP-18; LXFL 529; RXF 631; XF498.
Common to all, as to assay: growth of human tumour cells (NCI), 48 h

Consider `Cc1cc2nc3ccc(N(C)C)cc3[s+]c2cc1N` [TOLONIUM CHLORIDE], for which the GI50 with SNB-78 is 12.6 µM (inactive); with DMS-273, 2.67 µM (inactive); in the experiment with M19-MEL, 0.184 µM (active); in the experiment with DLD-1, 6.38 µM (inactive); in the experiment on KM-20L2, 14.5 µM (inactive); in the experiment with HOP-18 it was 10.3 µM (inactive). Besides, the GI50 in the experiment on LXFL 529 is 0.769 µM (active).

For the compound `CCCCNC(=O)C1C2CCC(O2)C1C(=O)O` (centres undefined), the GI50 with SNB-78 is 32.9 µM (inactive); in the experiment with RXF 631, 32.5 µM (inactive); in the experiment on XF498, 3.41 µM (inactive); in the experiment with DMS-273 it was 32.4 µM (inactive); in the experiment on M19-MEL, 19.3 µM (inactive); with DLD-1, 20.2 µM (inactive). Further, the GI50 in the experiment on KM-20L2 is 6.24 µM (inactive); in the experiment with HOP-18 it was 30.4 µM (inactive); in the experiment on LXFL 529, 16 µM (inactive).

Turning to `CCOC(=O)NN1C(=O)C(=P(c2ccccc2)(c2ccccc2)c2ccccc2)C(C(=O)OCC)=C1C`, the GI50 in the experiment with SNB-78, in the experiment with RXF 631, with XF498, with DMS-273, with M19-MEL and with DLD-1 was > 100 µM (inactive) each time. Besides, the GI50 in the experiment with KM-20L2 and with LXFL 529 was > 100 µM (inactive) in each case.

For the compound `CCOC(=O)C1Nc2ccccc2[C@H]2OCC[C@@H]12` (some centres undefined), the GI50 with SNB-78, in the experiment with XF498, with DMS-273, in the experiment with M19-MEL, in the experiment on DLD-1 and with KM-20L2 was > 100 µM (inactive) each time. In addition, the GI50 in the experiment on HOP-18 is > 100 µM (inactive).

Consider `COc1ccc(NC(=O)CC(=O)N/N=C/c2ccc(N(CCC#N)S(=O)(=O)c3ccccc3)cc2)cc1`, for which the GI50 in the experiment on SNB-78, in the experiment on RXF 631, with XF498, in the experiment on M19-MEL, in the experiment on DLD-1 and with KM-20L2 was > 100 µM (inactive) each time. In addition, the GI50 in the experiment with HOP-18 and in the experiment with LXFL 529 was > 100 µM (inactive) in each case.

Take `COC(=O)CC(C(C(=O)OCc1ccccc1)C(C)O)N1C(=O)OC(c2ccccc2)C1c1ccccc1` (centres undefined): the GI50 with RXF 631 is > 100 µM (inactive); with XF498 it was 24.9 µM (inactive); with DMS-273 it was > 100 µM (inactive); in the experiment on M19-MEL it was > 100 µM (inactive); in the experiment with DLD-1 it was > 100 µM (inactive); in the experiment on KM-20L2, > 100 µM (inactive). In the experiment on LXFL 529, the GI50 is > 100 µM (inactive).

In the case of `O=C1Nc2ccc(Br)cc2/C1=N/Nc1ccc([N+](=O)[O-])cc1`, the GI50 is 18.9 µM (inactive) with SNB-78; 17.3 µM (inactive) in the experiment with RXF 631; 23.7 µM (inactive) with XF498; 9.95 µM (inactive) in the experiment with DMS-273; 17.1 µM (inactive) with M19-MEL; 31.5 µM (inactive) in the experiment with DLD-1. In addition, the GI50 in the experiment on KM-20L2 is 72.1 µM (inactive); with HOP-18, 17.7 µM (inactive); in the experiment on LXFL 529, 22.8 µM (inactive).

For the compound `N=C(N)NS(=O)(=O)c1ccc(Nc2c3ccccc3nc3c(C(=O)N4CCN(CCO)CC4)cccc23)cc1`, the GI50 with SNB-78, with XF498, in the experiment with DMS-273, in the experiment with M19-MEL, with DLD-1 and with KM-20L2 was > 100 µM (inactive) throughout. Moreover, the GI50 in the experiment with HOP-18 and in the experiment on LXFL 529 was > 100 µM (inactive) in each case.

As for `COc1ccc2nc(C)cc(NCCCCCCCCCNc3cc(C)nc4ccc(OC)cc34)c2c1`, the GI50 in the experiment with SNB-78 is 1.8 µM (inactive); in the experiment on XF498 it was 2.21 µM (inactive); with DMS-273, 0.931 µM (active); in the experiment with M19-MEL, 14.6 µM (inactive); in the experiment with DLD-1, 2.31 µM (inactive); in the experiment with KM-20L2 it was 0.946 µM (active). Further, the GI50 with LXFL 529 was 1.17 µM (inactive).

For the compound `Cc1ccc(S(=O)(=O)c2c(N)c3nccn3c3nc4ccccc4nc23)cc1`, the GI50 with SNB-78 was 53.5 µM (inactive); in the experiment with XF498, 41.8 µM (inactive); in the experiment with DMS-273, 81.1 µM (inactive); in the experiment on M19-MEL, > 100 µM (inactive); with DLD-1, > 100 µM (inactive); in the experiment on KM-20L2, > 100 µM (inactive). In the experiment on LXFL 529, the GI50 was > 100 µM (inactive).

On to `COC(=O)CC(=O)C[P+](c1ccccc1)(c1ccccc1)c1ccccc1`, for which the GI50 was > 218 µM (inactive) in the experiment on RXF 631; 45.4 µM (inactive) in the experiment with XF498; > 218 µM (inactive) in the experiment with DMS-273; 209 µM (inactive) with M19-MEL; 194 µM (inactive) in the experiment on DLD-1; > 218 µM (inactive) in the experiment with KM-20L2. The GI50 was 39.8 µM (inactive) in the experiment with HOP-18 and 89.9 µM (inactive) in the experiment on LXFL 529.

Turning to `O=C1c2ccccc2C2(O)Oc3cccc(O)c3C12O` (centres undefined), the GI50 with SNB-78, in the experiment with RXF 631, with DMS-273, in the experiment with M19-MEL, in the experiment on DLD-1 and in the experiment with KM-20L2 was > 100 µM (inactive) in each case. The GI50 in the experiment on HOP-18 and in the experiment with LXFL 529 was > 100 µM (inactive) each time.

For the compound `COc1ccc2nc3cc(Cl)ccc3c(NCCC(=O)OCC(O)C(O)C(O[C@H](C)C(=O)NC(C)C(=O)NC(CCC(N)=O)C(=O)OCc3ccccc3)C(C=O)NC(C)=O)c2c1` (some centres undefined), the GI50 with SNB-78 was 32.5 µM (inactive); with RXF 631, 19.6 µM (inactive); with XF498, 18.5 µM (inactive); with DMS-273, 14.2 µM (inactive); in the experiment with M19-MEL it was 18 µM (inactive); in the experiment with DLD-1, 17.4 µM (inactive). Further, the GI50 was 17.2 µM (inactive) in the experiment with KM-20L2 and 17.3 µM (inactive) with LXFL 529.

On to `COC(=O)C1=C(O)C(O)=C(C(=O)OC)C1`, for which the GI50 in the experiment with SNB-78, with DMS-273, in the experiment on M19-MEL, with DLD-1, in the experiment with KM-20L2 and in the experiment on HOP-18 was > 100 µM (inactive) in each case. Besides, the GI50 in the experiment with LXFL 529 is > 100 µM (inactive).

Turning to `CSc1nc2c(nc(N)n2C2OCC(O)C(O)C2O)c(=O)n1C` (centres undefined), the GI50 with SNB-78, in the experiment on RXF 631, in the experiment on XF498, with M19-MEL, with DLD-1 and in the experiment with KM-20L2 was > 100 µM (inactive) throughout. The GI50 in the experiment with HOP-18 and with LXFL 529 was > 100 µM (inactive) throughout.

For `O=C(CSc1c2ccccc2nc2ccccc12)Nc1ccccc1-c1ccccc1NC(=O)CSc1c2ccccc2nc2ccccc12`, the GI50 in the experiment on SNB-78 is 27.6 µM (inactive); with XF498 it was 19.1 µM (inactive); in the experiment with DMS-273, 32.2 µM (inactive); in the experiment with M19-MEL it was 23.1 µM (inactive); in the experiment on DLD-1 it was 13.9 µM (inactive); in the experiment on KM-20L2, 31.3 µM (inactive). For the same compound, the GI50 is 79.1 µM (inactive) with HOP-18 and 9.46 µM (inactive) in the experiment on LXFL 529.

For the compound `O=C1CNNC(Cn2nc(-c3ccccc3)c3ccccc3c2=O)=N1`, the GI50 in the experiment with SNB-78, in the experiment on DMS-273, in the experiment with M19-MEL, in the experiment on DLD-1, in the experiment on HOP-18 and with LXFL 529 was > 100 µM (inactive) each time.

Turning to `Fc1cccc(C2SCc3nc4ccccc4n32)c1F` (centres undefined), the GI50 is 32.6 µM (inactive) in the experiment on SNB-78; 16.4 µM (inactive) in the experiment on RXF 631; 19.4 µM (inactive) with DMS-273; 43.9 µM (inactive) in the experiment on M19-MEL; > 100 µM (inactive) with DLD-1; > 100 µM (inactive) in the experiment on KM-20L2. For the same compound, the GI50 in the experiment with HOP-18 was 56.1 µM (inactive); in the experiment with LXFL 529 it was 40.9 µM (inactive).

As to `O=C(Cc1ccccc1)Oc1ccc2c(-c3ccccc3)c(C(=O)Nc3ccc(Cl)cc3)c(=O)oc2c1`, the GI50 in the experiment with SNB-78, with XF498, in the experiment on DMS-273, with M19-MEL, in the experiment with DLD-1 and with KM-20L2 was > 100 µM (inactive) throughout. For the same compound, the GI50 in the experiment with LXFL 529 was > 100 µM (inactive).

With `Cc1cccc2c(=O)c([Se]c3coc4c(C)cccc4c3=O)coc12`, the GI50 with SNB-78 was 16.3 µM (inactive); in the experiment on XF498, 19.7 µM (inactive); in the experiment on DMS-273, 21.4 µM (inactive); in the experiment on M19-MEL it was 16.5 µM (inactive); in the experiment on DLD-1, 20.8 µM (inactive); with KM-20L2, 21.5 µM (inactive). Besides, the GI50 in the experiment with HOP-18 is 19 µM (inactive); in the experiment with LXFL 529, 14.6 µM (inactive).

As for `COc1ccccc1NC(=O)c1nc2ccc([N+](=O)[O-])cc2nc1C`, the GI50 is 21 µM (inactive) with XF498; > 100 µM (inactive) in the experiment with DMS-273; > 100 µM (inactive) in the experiment on M19-MEL; > 100 µM (inactive) in the experiment on DLD-1; > 100 µM (inactive) with KM-20L2; 0.238 µM (active) with HOP-18. For the same compound, the GI50 in the experiment on LXFL 529 was > 100 µM (inactive).

Regarding `Cc1ccccc1Nc1nc2c(s1)C(=O)c1ccccc1C2=O`, the GI50 with SNB-78 is 12.8 µM (inactive); in the experiment on XF498, 15.6 µM (inactive); in the experiment with DMS-273, 8.07 µM (inactive); in the experiment with M19-MEL, 1.95 µM (inactive); with DLD-1, 5.73 µM (inactive); in the experiment with KM-20L2, 28.6 µM (inactive). For the same compound, the GI50 is 12.4 µM (inactive) in the experiment on HOP-18 and 4.61 µM (inactive) in the experiment with LXFL 529.

Regarding `COc1ccc2oc(C(=O)O)c3c2c1CCC3CCC(=O)O` (centres undefined), the GI50 with SNB-78, in the experiment with RXF 631, in the experiment with XF498, in the experiment with DMS-273, in the experiment on M19-MEL and with DLD-1 was > 100 µM (inactive) throughout. Besides, the GI50 with LXFL 529 is > 100 µM (inactive).

For the compound `O=C(Nc1cc(Cl)c(Cl)cc1Cl)C(=O)C(C(=O)c1ccc2ccccc2c1)C1OC(=O)c2ccccc21` (centres undefined), the GI50 was 8.43 µM (inactive) in the experiment with SNB-78, 13.6 µM (inactive) in the experiment with M19-MEL, 14.4 µM (inactive) in the experiment on DLD-1 and 10.6 µM (inactive) in the experiment on LXFL 529.
